How the values were obtained:
Format in all cases: functional, organism-based
[1] = molecular target: T1, ATP-binding cassette sub-family C member 3 (Rattus norvegicus, UniProt O88563); assay: TP_TRANSPORTER: quantitative PCR in vivo, […] of male Sprague-Dawley rat
[2] = molecular target: T1, ATP-binding cassette sub-family C member 3; assay: (§1) TP_TRANSPORTER: quantitative PCR in vivo, liver of male Sprague-Dawley rat
[3] = molecular target: T2, Solute carrier organic anion transporter family member 1A4 (Rattus norvegicus, UniProt O35913); assay: as §1
T2 sequence (O35913 whole entry): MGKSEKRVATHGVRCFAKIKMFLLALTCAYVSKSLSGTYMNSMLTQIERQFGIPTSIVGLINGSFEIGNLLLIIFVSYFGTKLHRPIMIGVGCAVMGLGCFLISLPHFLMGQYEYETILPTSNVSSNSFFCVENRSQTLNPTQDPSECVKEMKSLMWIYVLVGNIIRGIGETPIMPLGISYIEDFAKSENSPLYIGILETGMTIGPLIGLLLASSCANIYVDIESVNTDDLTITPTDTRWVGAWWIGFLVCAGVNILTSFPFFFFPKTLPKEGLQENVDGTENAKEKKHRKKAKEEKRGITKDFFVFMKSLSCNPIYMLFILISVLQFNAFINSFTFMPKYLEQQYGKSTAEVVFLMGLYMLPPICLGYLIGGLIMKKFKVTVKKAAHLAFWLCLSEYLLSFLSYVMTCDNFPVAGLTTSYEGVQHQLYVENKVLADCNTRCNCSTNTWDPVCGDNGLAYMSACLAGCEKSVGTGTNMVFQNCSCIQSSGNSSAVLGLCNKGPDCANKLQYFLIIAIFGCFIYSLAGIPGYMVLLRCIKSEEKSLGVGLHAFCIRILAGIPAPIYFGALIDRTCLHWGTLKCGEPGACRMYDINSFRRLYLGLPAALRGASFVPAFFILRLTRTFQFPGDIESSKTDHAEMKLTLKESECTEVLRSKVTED

Measured: Activity

T1 sequence (O88563 whole entry): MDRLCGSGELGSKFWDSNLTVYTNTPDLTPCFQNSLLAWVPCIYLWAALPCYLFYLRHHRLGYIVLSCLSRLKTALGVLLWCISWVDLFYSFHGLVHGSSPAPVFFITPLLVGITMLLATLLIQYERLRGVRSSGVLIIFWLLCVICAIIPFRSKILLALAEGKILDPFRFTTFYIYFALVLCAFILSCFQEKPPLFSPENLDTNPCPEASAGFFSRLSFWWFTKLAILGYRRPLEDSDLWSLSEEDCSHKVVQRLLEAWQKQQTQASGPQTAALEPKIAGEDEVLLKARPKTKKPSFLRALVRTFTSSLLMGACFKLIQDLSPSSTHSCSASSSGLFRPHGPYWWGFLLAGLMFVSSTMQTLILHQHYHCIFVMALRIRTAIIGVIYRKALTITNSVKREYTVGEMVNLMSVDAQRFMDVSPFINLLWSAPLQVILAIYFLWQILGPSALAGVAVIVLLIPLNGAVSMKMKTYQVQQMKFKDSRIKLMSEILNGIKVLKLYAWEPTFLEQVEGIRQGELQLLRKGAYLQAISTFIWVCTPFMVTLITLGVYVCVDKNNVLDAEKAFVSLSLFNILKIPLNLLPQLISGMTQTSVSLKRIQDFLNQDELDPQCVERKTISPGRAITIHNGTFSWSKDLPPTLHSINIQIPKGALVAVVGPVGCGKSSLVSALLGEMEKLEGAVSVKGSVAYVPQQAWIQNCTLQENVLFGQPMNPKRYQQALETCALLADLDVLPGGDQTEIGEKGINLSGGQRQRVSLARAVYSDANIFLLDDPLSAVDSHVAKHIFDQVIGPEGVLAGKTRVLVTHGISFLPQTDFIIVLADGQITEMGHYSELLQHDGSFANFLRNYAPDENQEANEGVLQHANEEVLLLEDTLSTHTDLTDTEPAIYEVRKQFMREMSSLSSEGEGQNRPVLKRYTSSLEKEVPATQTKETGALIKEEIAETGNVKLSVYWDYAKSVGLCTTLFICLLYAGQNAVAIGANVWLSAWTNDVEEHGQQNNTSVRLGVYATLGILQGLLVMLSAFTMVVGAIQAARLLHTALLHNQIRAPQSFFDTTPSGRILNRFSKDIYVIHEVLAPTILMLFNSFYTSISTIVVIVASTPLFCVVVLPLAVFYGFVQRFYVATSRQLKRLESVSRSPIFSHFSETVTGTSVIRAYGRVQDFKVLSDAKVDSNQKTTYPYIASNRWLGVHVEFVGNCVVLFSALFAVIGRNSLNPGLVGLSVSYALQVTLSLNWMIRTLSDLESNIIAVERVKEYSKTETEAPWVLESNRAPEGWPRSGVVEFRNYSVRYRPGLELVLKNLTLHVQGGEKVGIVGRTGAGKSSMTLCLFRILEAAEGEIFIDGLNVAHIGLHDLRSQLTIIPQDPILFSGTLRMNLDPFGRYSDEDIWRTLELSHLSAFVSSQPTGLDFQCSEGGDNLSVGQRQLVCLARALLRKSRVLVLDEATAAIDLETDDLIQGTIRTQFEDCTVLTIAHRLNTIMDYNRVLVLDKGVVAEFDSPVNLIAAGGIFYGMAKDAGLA

c1cnc2c(c1)ccc1ncccc12
inducer []: all assays above
